Test results from patent US7579448B2, “Purification of microbial cell fermentation homogenates” (Genentech, Inc., priority 2003, dated 2009).

What was measured:
[1] = Conductivity study: NaCl added to anti-CD18 homogenate with 0.6% ethacridine lactate; type: physicochemical; settings: 100 mM NaCl, anti-CD18 homogenate diluted 4-fold
Method: Various concentrations of NaCl were added to anti-CD18 homogenate to evaluate the effect of conductivity on protein precipitation. The NaCl concentrations studied were 0, 50, 100, 150, 200, and 400 mM. A reference series without ethacridine lactate was also performed to determine if any protein was precipitated due to the high salt concentration. The pH in this salt spike study was 8.5 and the anti-CD18 homogenate was diluted 4-fold. The ethacridine lactate concentration in the samples was 0.6% and 0% for the reference experiments.

[2] = Ethacridine lactate solubility at increasing NaCl concentrations; type: physicochemical
Method: The samples were incubated for three hours at room temperature before the concentration of soluble ethacridine lactate was determined. The open keys symbolize the 1.2% ethacridine lactate solution and the closed keys the 0.6% solution. The solid line is the 0.6% ethacridine lactate solution at pH 6.0, the broken line is the 1.2% ethacridine lactate solution at pH 6, the dotted line is the 0.6% ethacridine lactate solution at pH 9, and the broken line with dots is the 1.2% ethacridine lactate solution at pH 9.
Two ethacridine lactate solutions, i.e., 0.6 and 1.2%, were studied. Each solution was divided into two aliquots and pH adjusted to 6.0 and 9.0, respectively. To obtain a slight buffer capacity in the system, the ethacridine lactate was dissolved in 10 mM Tris-HCl buffer. Each ethacridine lactate solution was exposed to increasing amounts of NaCl, i.e., 0, 50, 100, 150, 200, 300, and 600 mM. The samples were incubated for 3 hours, then centrifuged for 20 minutes at 12000 g in a microfuge (SORVALL MC12V™, DuPont, Wilmington, Del., USA). The supernatants were assayed for ethacridine lactate by measuring the absorption at 270 nm. The spectrophotometer used was a HP8453 UV-VIS™ from Hewlett Packard (Wilmington, Del.), now Aligent Technologies (Palo Alto, Calif.) and known as the AGILENT 8453 UV-VIS™ spectrophotometer. A standard curve was derived from a solution with known ethacridine lactate concentration.

solubility of ethacridine lactate ([2]; pH 6, 0.6 and 1.2% solutions, 50 mM NaCl, 3 hours at room temperature): soluble
solubility of ethacridine lactate ([2]; pH 6, 0.6 and 1.2% solutions, 100 mM NaCl, 3 hours at room temperature): nearly fully precipitated
SMILES: CC(O)C(=O)O.CCOc1ccc2nc3cc(N)ccc3c(N)c2c1 [ethacridine lactate, 6,9-diamino-2-ethoxyacridine lactate]
precipitation of ethacridine lactate in the extraction system [1]: precipitation of ethacridine lactate was observed
solubility of ethacridine lactate ([2]; pH 9, 0.6% solution compared with 1.2% solution, increasing NaCl): precipitated at lower salt concentration than the more concentrated ethacridine lactate solution
